Results on twelve compounds are retold here after patent publication US20170355705A1 (GlaxoSmithKline Intellectual Property (No.2) Limited, priority 2014, published 2017).

The test deals with T1, SIRT1 (Homo sapiens, UniProt Q96EB6).
T1 sequence (Q96EB6 1-747): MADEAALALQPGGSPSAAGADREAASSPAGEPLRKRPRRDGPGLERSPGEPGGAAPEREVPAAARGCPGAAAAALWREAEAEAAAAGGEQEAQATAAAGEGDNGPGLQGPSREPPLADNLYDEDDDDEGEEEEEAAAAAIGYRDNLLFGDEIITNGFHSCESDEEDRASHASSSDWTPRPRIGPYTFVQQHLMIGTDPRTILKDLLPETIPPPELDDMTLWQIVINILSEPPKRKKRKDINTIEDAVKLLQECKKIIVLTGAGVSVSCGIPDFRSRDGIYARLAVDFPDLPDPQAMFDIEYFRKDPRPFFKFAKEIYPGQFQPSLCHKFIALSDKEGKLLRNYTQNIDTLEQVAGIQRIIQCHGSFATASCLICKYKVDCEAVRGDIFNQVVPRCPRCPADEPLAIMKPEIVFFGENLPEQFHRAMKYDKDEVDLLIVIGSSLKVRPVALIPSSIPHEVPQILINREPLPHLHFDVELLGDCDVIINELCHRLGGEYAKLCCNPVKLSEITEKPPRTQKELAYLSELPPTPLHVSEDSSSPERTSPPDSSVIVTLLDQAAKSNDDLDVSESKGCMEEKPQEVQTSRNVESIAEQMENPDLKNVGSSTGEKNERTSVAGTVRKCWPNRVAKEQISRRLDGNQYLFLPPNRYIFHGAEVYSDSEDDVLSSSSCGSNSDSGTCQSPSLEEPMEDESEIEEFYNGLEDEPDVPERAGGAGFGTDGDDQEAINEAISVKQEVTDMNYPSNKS
The test is described as follows: Trp mass spectrometry assay of SIRT1 activity (EC1.5, percent maximum activation). The conditions noted are these: Trp mass spectrometry assay; 0.5 μM peptide substrate, 120 μM βNAD+, 10 nM SIRT1, 25 minutes at 25° C. In kind it is biochemical. Summed up: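 Mass spectrometry read-out (OAADPR formed, or deacetylated Trp peptide) after a 25 min NAD-dependent deacetylation by E. coli-expressed His-SIRT1, stopped with formic acid.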
Regarding `Cc1cc(-c2ccc3c(n2)N(C(=O)Nc2cc(-n4ccnn4)ccn2)[C@H]2CCN3C2)ccn1` [Example 341], the “TRP MAX RESP (percent maximum fold activation)” value is recorded as “A (Fold activation ≧150%)”. `Cc1cc(-c2ccc3c(n2)N(C(=O)Nc2nccc(-c4cnc(C)o4)n2)[C@H]2CCN3C2)ccn1` [Example 353]: the “TRP MAX RESP (percent maximum fold activation)” value was “A (Fold activation ≧150%)”. In the case of `Cc1cc(-c2ccc3c(n2)N(C(=O)Nc2nccc(-c4cnco4)n2)[C@H]2CCN3C2)ccn1` [Example 355], the “TRP MAX RESP (percent maximum fold activation)” value was “A (Fold activation ≧150%)”.

In the case of `Cc1cc(-c2ccc3c(n2)N(C(=O)Nc2cc(N4C[C@@H](C)O[C@@H](C)C4)ccn2)[C@H]2CCN3C2)ccn1` [Example 356], the “TRP MAX RESP (percent maximum fold activation)” value is listed as “A (Fold activation ≧150%)”.

With `Cc1cc(-c2ccc3c(n2)N(C(=O)Nc2cc(N4C[C@@H](C)O[C@@H](C)C4)ccn2)[C@H]2CCN3C2)ccn1` [Example 357, (4S)-N-(4-((2S,6R)-2,6-dimethylmorpholino)pyridin-2-yl)-7-(2-methylpyridin-4-yl)-3,4-dihydro-1,4-methanopyrido[2,3-b][1,4]diazepine-5(2H)-carboxamide], the “TRP Activity (EC1.5, concentration of test compound that results in 150% activation of SIRT1)” value is recorded as “A (EC1.5<1 μM)” and the “TRP MAX RESP (percent maximum fold activation)” value is recorded as “A (Fold activation ≧150%)”.

For `Cc1cc(-c2ccc3c(n2)N(C(=O)Nc2nccc(-c4cn(C)nc4C)n2)[C@H]2CCN3C2)ccn1` [Example 358, (4S)-N-(4-(1,3-dimethyl-1H-pyrazol-4-yl)pyrimidin-2-yl)-7-(2-methylpyridin-4-yl)-3,4-dihydro-1,4-methanopyrido[2,3-b][1,4]diazepine-5(2H)-carboxamide], the “TRP Activity (EC1.5, concentration of test compound that results in 150% activation of SIRT1)” value is on record as “B (EC1.5 1-25 μM)” and the “TRP MAX RESP (percent maximum fold activation)” value is given as “A (Fold activation ≧150%)”.

As to `O=C(Nc1ncnc2cccc(F)c12)N1c2nc(-c3cccc(C(F)(F)F)c3)ccc2N2CC[C@H]1C2` [Example 361], the “TRP MAX RESP (percent maximum fold activation)” value is “A (Fold activation ≧150%)”. For `Cc1cc(-c2ccc3c(n2)N(C(=O)Nc2cc(-c4c(C)nn(C)c4C)ccn2)[C@H]2CCN3C2)ccn1` [Example 365], the “TRP MAX RESP (percent maximum fold activation)” value is given as “A (Fold activation ≧150%)”.

For `Cc1cc(-c2ccc3c(n2)N(C(=O)Nc2cc(-c4cnn(CC(F)(F)F)c4)ccn2)[C@H]2CCN3C2)ccn1` [Example 366], the “TRP MAX RESP (percent maximum fold activation)” value was “A (Fold activation ≧150%)”. `Cc1cc(-c2ccc3c(n2)N(C(=O)Nc2cc(N4CCCC4)ccn2)[C@H]2CCN3C2)ccn1` [Example 367]: the “TRP MAX RESP (percent maximum fold activation)” value was “A (Fold activation ≧150%)”.

Regarding `O=C(NCCO)N1c2nc(-c3cccc(C(F)(F)F)c3)ccc2N2CC[C@H]1C2` [Example 378, (4S)-N-(2-hydroxyethyl)-7-(3-(trifluoromethyl)phenyl)-3,4-dihydro-1,4-methanopyrido[2,3-b][1,4]diazepine-5(2H)-carboxamide], the “TRP Activity (EC1.5, concentration of test compound that results in 150% activation of SIRT1)” value is listed as “B (EC1.5 1-25 μM)” and the “TRP MAX RESP (percent maximum fold activation)” value is recorded as “A (Fold activation ≧150%)”. As for `NC(=O)N1c2nc(-c3cccc(C(F)(F)F)c3)ccc2N2CC[C@H]1C2` [Example 379, (4S)-7-(3-(trifluoromethyl)phenyl)-3,4-dihydro-1,4-methanopyrido[2,3-b][1,4]diazepine-5(2H)-carboxamide], the “TRP Activity (EC1.5, concentration of test compound that results in 150% activation of SIRT1)” value is given as “C (EC1.5>25 μM)” and the “TRP MAX RESP (percent maximum fold activation)” value is “B (Fold Activation <150%)”.
